Assay results taken from US20150337010A1, “Method for treating or preventing liver related diseases” (Tunghai University, priority 2014, published 2015).

Tests used:
Assay type in all cases: in vivo, C57BL/6 male mice
TNFα = experiment: Western blotting of liver protein extract: TNFα; settings: high-fat diet mice, groups 3~5 (5, 15, 25 mg/kg/day i.p.), normalized with tubulin, compared to group 2
Description: (§1) The experiments using the experimental mice were conducted according to the IACUC-100-12 protocol approved by Academia Sinica Institutional Animal Care and Utilization Committee (IACUC) ethics committee. All C57BL/6 male mice (6-weeks-old) were randomly divided into 5 groups that contain 8 mice in each. These mice were individually housed in a room temperature at 24±2° C. and 55±10% humidity with 12 hours of light cycle. Herein, the control mice in the group 1 were fed with standard laboratory diet and administrated 0.9% normal saline by intra-peritoneal injection. In the group 2, the mice were fed with high-fat diet to induce the fatty liver, and administrated 0.9% normal saline by intra-peritoneal injection. […]
(§2) Protein concentration of extract was determined by Lowry's protein assay method, first. […]
(§3) According to the methods in example 4 and 5, preparing the protein extract of mouse liver in the each group and then the expression pattern of TNFα and IL-6 in mouse liver of the each group was determined by western blotting. The results were shown in FIG. 5 and FIG. 6, wherein the expression of tubulin was utilized as internal control in FIG. 5 and FIG. 6 and the relative amount of TNFα and IL-6 in mouse liver of the each group were separately quantified and normalization with the internal control.

cytochrome c = experiment: Western blotting of liver protein extract: cytochrome c; settings: high-fat diet mice, groups 3~5 (5, 15, 25 mg/kg/day i.p.), normalized with tubulin, compared with group 2
Description: as §1, with “injection.” for “injection. In the group 2, the mice were fed with high-fat diet to induce the fatty liver, and administrated 0.9% normal saline by intra-peritoneal injection.”
as §2
(§4) The protein extract of the mouse liver of the each group was prepared in example 4 and then to determine the expressions of apoptosis and survive related proteins using western blotting of example 5. The expression pattern of the apoptosis and survive related proteins were shown in FIG. 7 to FIG. 12, wherein the expression of tubulin was utilized as the internal control in western blot analysis in FIG. 7, FIG. 9 and FIG. 11, and the relative expression levels of the apoptosis and survive related proteins in mouse liver were normalized with tubulin for quantification in FIG. 8, FIG. 10 and FIG. 12. […]

AKT = experiment: Western blotting of liver protein extract: AKT; settings: high-fat diet mice, groups 3~5 (5, 15, 25 mg/kg/day i.p.), normalized with tubulin, compared with group 2
Description: as §1, with “injection.” for “injection. In the group 2, the mice were fed with high-fat diet to induce the fatty liver, and administrated 0.9% normal saline by intra-peritoneal injection.”
as §2, §4

mouse liver = experiment: Histopathological examination (H&E) of mouse liver, high-fat diet fed mice; settings: high-fat diet mice, 5, 15 or 25 mg/kg/day intra-peritoneal (groups 3~5)
Description: The experiments using the experimental mice were conducted according to the IACUC-100-12 protocol approved by Academia Sinica Institutional Animal Care and Utilization Committee (IACUC) ethics committee. All C57BL/6 male mice (6-weeks-old) were randomly divided into 5 groups that contain 8 mice in each. These mice were individually housed in a room temperature at 24±2° C. and 55±10% humidity with 12 hours of light cycle. Herein, the control mice in the group 1 were fed with standard laboratory diet and administrated 0.9% normal saline by intra-peritoneal injection. In the group 2, the mice were fed with high-fat diet to induce the fatty liver, and administrated 0.9% normal saline by intra-peritoneal injection. In the group 3, the mice were fed with high-fat diet and administrated with peptide of SEQ ID No.1 by intra-peritoneal injected with the dose of 5 mg/kg/day. In the group 4, the mice were fed with high-fat diet and administrated with peptide of SEQ ID No.1 by intra-peritoneal injected with the dose of 15 mg/kg/day. In the group 5, the mice were fed with high-fat diet and administrated with peptide of SEQ ID No.1 by intra-peritoneal injected with the dose of 25 mg/kg/day. The inter-peritoneal injections were performed on these mice between third to sixth weeks of culture.
The livers were excised from the mice of the each group; soaked in formalin; dehydrated by passing consecutively through […] and then embedded in paraffin wax. The each embedded liver tissue block was cut into […] sections and deparaffinization by soaking in xylene. The histological section of the mouse liver in the each group was consecutively stained by hematoxylin and eosin (H&E) and rinsed with water. The photomicrographs of the histological section of the mouse liver in the each group obtained using Zeiss Axiophot microscope (Thornwood Co, USA.) were shown in FIG. 3 and FIG. 4.

PPARα = experiment: Western blotting of liver protein extract: PPARα; settings: high-fat diet mice, groups 3~5 (5, 15, 25 mg/kg/day i.p.), normalized with tubulin, compared with group 2
Description: as §1, §2
According to method in example 5, protein extract of mouse liver in each group prepared in example 4 was subjected to determine the expression pattern and relative level of PPARα. The results were shown in FIG. 15 and FIG. 16, wherein the expression of tubulin was utilized as the internal control in FIG. 15 and the quantified expression level of PPARα in the mouse livers of the each group was calculated with normalized with quantified expression level of tubulin in FIG. 16.

Caspase-8 = experiment: Western blotting of liver protein extract: Caspase-8; settings: high-fat diet mice, groups 3~5 (5, 15, 25 mg/kg/day i.p.), normalized with tubulin, compared with group 2
Description: as §1, with “injection.” for “injection. In the group 2, the mice were fed with high-fat diet to induce the fatty liver, and administrated 0.9% normal saline by intra-peritoneal injection.”
as §2, §4

PI3K = experiment: Western blotting of liver protein extract: PI3K; settings: high-fat diet mice, groups 3~5 (5, 15, 25 mg/kg/day i.p.), normalized with tubulin, compared with group 2
Description: as §1, with “injection.” for “injection. In the group 2, the mice were fed with high-fat diet to induce the fatty liver, and administrated 0.9% normal saline by intra-peritoneal injection.”
as §2, §4

Caspase-9 = experiment: Western blotting of liver protein extract: Caspase-9; settings: high-fat diet mice, groups 3~5 (5, 15, 25 mg/kg/day i.p.), normalized with tubulin, compared with group 2
Description: as §1, with “injection.” for “injection. In the group 2, the mice were fed with high-fat diet to induce the fatty liver, and administrated 0.9% normal saline by intra-peritoneal injection.”
as §2, §4

IGFIR = experiment: Western blotting of liver protein extract: IGFIR; settings: high-fat diet mice, groups 3~5 (5, 15, 25 mg/kg/day i.p.), normalized with tubulin, compared with group 2
Description: as §1, with “injection.” for “injection. In the group 2, the mice were fed with high-fat diet to induce the fatty liver, and administrated 0.9% normal saline by intra-peritoneal injection.”
as §2, §4

Bax = experiment: Western blotting of liver protein extract: Bax; settings: high-fat diet mice, groups 3~5 (5, 15, 25 mg/kg/day i.p.), normalized with tubulin, compared with group 2
Description: as §1, with “injection.” for “injection. In the group 2, the mice were fed with high-fat diet to induce the fatty liver, and administrated 0.9% normal saline by intra-peritoneal injection.”
as §2, §4

[1] = LDL-cholesterol and triglyceride in blood plasma of high-fat diet fed mice; settings: high-fat diet mice, 5, 15 or 25 mg/kg/day intra-peritoneal (groups 3~5), compared with group 2 (high-fat diet, saline)
Description: The experiments using the experimental mice were conducted according to the IACUC-100-12 protocol approved by Academia Sinica Institutional Animal Care and Utilization Committee (IACUC) ethics committee. All C57BL/6 male mice (6-weeks-old) were randomly divided into 5 groups that contain 8 mice in each. These mice were individually housed in a room temperature at 24±2° C. and 55±10% humidity with 12 hours of light cycle. Herein, the control mice in the group 1 were fed with standard laboratory diet and administrated 0.9% normal saline by intra-peritoneal injection. In the group 2, the mice were fed with high-fat diet to induce the fatty liver, and administrated 0.9% normal saline by intra-peritoneal injection. In the group 3, the mice were fed with high-fat diet and administrated with peptide of SEQ ID No.1 by intra-peritoneal injected with the dose of 5 mg/kg/day. In the group 4, the mice were fed with high-fat diet and administrated with peptide of SEQ ID No.1 by intra-peritoneal injected with the dose of 15 mg/kg/day. […]
The blood samples collected from the mice in each group indicated in example 1 into the microcentrifuge tubes containing heparin (10 μL, 1000 IU/ml). […] The concentration of low density lipoprotein-cholesterol (hereafter referred to as LDL) and triglyceride in the isolated blood plasma from the mice in the each group were determined by using the commercial detection kit.

IL-6 = experiment: Western blotting of liver protein extract: IL-6; settings: high-fat diet mice, groups 3~5 (5, 15, 25 mg/kg/day i.p.), normalized with tubulin, compared to group 2
Description: as §1, §2, §3

[2] = tested on: matrix metalloproteinase-9; experiment: Western blotting of liver protein extract: MMP-9 (hepatic fibrosis biomarker); settings: high-fat diet mice, groups 3~5 (5, 15, 25 mg/kg/day i.p.), normalized with tubulin, compared with group 2
Description: as §1, §2
According to method in example 5, protein extract of mouse liver in the each group prepared in example 4 was subjected to determine the expression pattern and relative level of matrix metalloproteinase-9 (hereafter referred to as MMP 9). The results were shown in FIG. 13 and FIG. 14, wherein in FIG. 13, the expression of tubulin was utilized as the internal control in the western blotting and in FIG. 14, the quantified expression level of MMP-9 in the mouse liver of the each group was calculated with normalized with quantified expression level of tubulin.

Bcl-2 = experiment: Western blotting of liver protein extract: Bcl-2; settings: high-fat diet mice, groups 3~5 (5, 15, 25 mg/kg/day i.p.), normalized with tubulin, compared with group 2
Description: as §1, with “injection.” for “injection. In the group 2, the mice were fed with high-fat diet to induce the fatty liver, and administrated 0.9% normal saline by intra-peritoneal injection.”
as §2, §4

Caspase-3 = experiment: Western blotting of liver protein extract: Caspase-3; settings: high-fat diet mice, groups 3~5 (5, 15, 25 mg/kg/day i.p.), normalized with tubulin, compared with group 2
Description: as §1, with “injection.” for “injection. In the group 2, the mice were fed with high-fat diet to induce the fatty liver, and administrated 0.9% normal saline by intra-peritoneal injection.”
as §2, §4

peptide of SEQ ID No.1: isolated peptide containing an amino acid sequence of SEQ ID No.1; obtainable by extraction, hydrolyzation or chemical synthesis (VHVV)
expression level of TNFα in mouse liver (TNFα): obviously reduced | expression level of cytochrome c (pro-apoptotic factor) in mouse liver (cytochrome c): obviously suppressed | expression level of survival related protein AKT (pAKT) in mouse liver (AKT): obviously higher | fat accumulation in the mouse liver (H&E) (mouse liver; compared with group 2): obviously decreased | giant oil drops in the mouse liver (H&E) (mouse liver; group 2 filled with giant oil drops): never was observed the giant oil drop | arrangement of hepatocytes in the mouse liver (H&E) (mouse liver; group 2 loosely arranged): tightly arranged hepatocytes | expression level of PPARα in mouse liver (PPARα): obviously increased | expression level of Caspase-8 (pro-apoptotic factor) in mouse liver (Caspase-8): obviously suppressed | expression level of survival related protein PI3K in mouse liver (PI3K): obviously higher | expression level of Caspase-9 (pro-apoptotic factor) in mouse liver (Caspase-9): obviously suppressed | expression level of survival related protein IGFIR (pIGF-IR) in mouse liver (IGFIR): obviously higher | expression level of Bax (pro-apoptotic factor) in mouse liver (Bax): obviously suppressed | concentration of LDL in blood plasma [1]: obviously decreased | concentration of triglyceride in blood plasma [1]: obviously decreased | expression level of IL-6 in mouse liver (IL-6): obviously reduced | expression level of MMP-9 in mouse liver [2]: obviously suppressed | expression level of Bcl-2 in mouse liver (Bcl-2): elevated | expression level of Caspase-3 (pro-apoptotic factor) in mouse liver (Caspase-3): obviously suppressed
